# Data from PMC12516689, “Stimuli-Responsive Hydrogels from Liquid–Liquid Phase Separations of FUS-Derived Peptides” (ACS Applied Materials & Interfaces, 2025).
# Columns and labels:
# [1] = Hydrogel formation, inverted test tube analysis; assay type: physicochemical; conditions: for Concentration at which self-supporting hydrogel is obtained: sonication
# Protocol: Peptide solutions were dissolved in PBS at concentrations varying from 2.0 μM to 2.0 mM. To allow a complete dissolution, samples were sonicated for 15 min. Hydrogels were prepared by adding PBS to the peptide powder to a final concentration of 2 or 3 wt %. After sonication, samples were stored at 4 °C overnight and the hydrogel formation was macroscopically evaluated through inverted test tube analyses.
# Self-supporting hydrogels of L1-L2 and of L1-L2-L3 were obtained starting from a concentration of 2 wt % when 10 mM PBS was used in place of water (inverted test tube, Figure a). […] From a biomedical perspective, achieving gelation at lower peptide concentrations is highly desirable to minimize potential cytotoxicity and facilitate in vivo applications. […] This sequence, in comparison to the L1 and L2 motifs, features a higher content of glycine residues and a single tyrosine, while L1 and L2 each contain two. The different behavior of L3 might therefore arise from a reduced number of π–π stacking interactions, a known driving factor in the gelation process, or the higher entropic cost associated with glycine residues.
# [2] = Rheological studies of hydrogels as a function of temperature; assay type: physicochemical; conditions: amplitude 0.1%, frequency 1 Hz; for G′ (storage modulus) upon cooling back to 4 °C / G′ (storage modulus) upon heating to 80 °C / G′ (storage modulus), initial value at 4 °C: 2 wt % hydrogel in PBS; for G′ (storage modulus) upon cooling back to 4 °C: after cooling ramp 80 to 4 °C; for G′ (storage modulus) upon heating to 80 °C: end of heating ramp 4 to 80 °C; for G′ (storage modulus), initial value at 4 °C: start of heating ramp 4 to 80 °C
# Protocol: Rheological measurements of freshly preformed hydrogels (1000 μL) were performed with a rotational controlled-stress Haake Mars 40 rheometer (Thermo Fisher, Germany) by using a 3.5 cm diameter flat-plate geometry (P35/TI) with a gap of 0.5 mm. The analyses were conducted at different temperatures increasing from 4 to 80 °C and then decreasing from 80 to 4 °C. Amplitude (γ) was set at 0.1% and Frequency 1 Hz. G′ (storage modulus) and G″ (loss modulus) are reported as a function of the temperature.
# To study the mechanical behavior of the matrices, hydrogels from L1-L2-L3 and L1-L2 sequences were subjected to rheological measurements. The storage (G′) and loss (G″) moduli, two key parameters describing the viscoelastic behavior of materials, were studied as a function of the temperature. Measurements were conducted across the entire temperature range, increasing from 4 to 80 °C and subsequently decreasing from 80 to 4 °C. […] However, the heating/cooling process induced significant increase in the rigidity of both samples. […] For the L1-L2 sample, the initial values of G′ at these temperatures were 1 Pa at 4 °C, 32 Pa at 80 °C, and 7314 Pa upon cooling back at 4 °C. To enhance the hydrogel disaggregation response to temperature increase, we adopted a design strategy focused on incorporating disruptive elements into the peptide sequences. This approach stems from the insights that the L3 sequence has the potential to inhibit the aggregation of the multi-LARK peptides. Following this rationale, we initially synthesized a multi-LARK sequence made of L3-L2-L3 LCDs (Figure S13a).
# [3] = Hydrogel stability in contact with acidic and basic solutions; assay type: physicochemical; conditions: preformed hydrogels, room temperature, macroscopically observed up to 7 days
# Protocol: To address the impact of the primary sequence on the hydrogel’s sensitivity to external stimuli, their mechanical behavior as a response to pH and temperature triggers was tested. Preformed L1-L2 and L1-L2-L3 hydrogels were put in contact with both acidic (pH 5) and basic (pH 10) solutions at room temperature and were macroscopically observed over time up to 7 days. […] This behavior can be rationalized considering that the presence of ionizable acidic or basic amino acids typically drives pH-responsive properties in peptide-based systems. In our case, the sequences contain only a single acidic residue (Asp, D), which is located within the linker region rather than in the LARKS domains considered to be responsible for driving the gelation process.
# [4] = Critical aggregation concentration (CAC) by intrinsic self-fluorescence; assay type: physicochemical; conditions: 10 mM PBS pH 7.4, no external probe, excitation 310 nm, emission intensity at 407 or 417 nm vs concentration, break point, 20 °C
# Protocol: A Shimadzu RF-6000 (Kyoto, Japan) spectrofluorometer was used to perform fluorescence measurements. Samples were placed in a 10.0 mm × 5.00 mm quartz cell and the settings used for the measurement were excitation and emission bandwidths of 2.5 nm and temperature of 20 °C. The critical aggregation concentration (CAC) of the peptides was estimated through the evaluation of the self-fluorescence behavior of the peptides. After excitation at 310 nm, the intensity of the emission band at 407 or 417 nm was checked and plotted as a function of concentration. Spectra were also recorded in excitation mode.
# The ability of the multi-LARKS to self-assemble was evaluated in physiological buffer conditions (10 mM PBS, pH 7.4). Critical aggregation concentrations (CACs), designated as the minimum concentrations at which they spontaneously self-assemble, were assessed in the absence of any external fluorescence probe and by detecting the nonaromatic intrinsic self-fluorescence at increasing peptide concentrations. […] All the multi-LARK sequences here studied presented a near-UV emission, with a maximum of excitation at 310 nm.
# By plotting the fluorescence intensity at the maximum emission wavelength as a function of concentration, CAC values, calculated at the break point, resulted 128 μM, 236 μM, 153 μM and 175 μM for L1-L2-L3, L1-L2, L1-L3, and L2-L3, respectively (see Table S2). […]
# [5] = Aggregation kinetics followed by self-fluorescence in microplate reader; assay type: physicochemical; conditions: 2.0 mM peptide in PBS; λex 355 nm, emission 460 nm over 300 h; 96-well plate, orbital shake 200 rpm; triplicate
# Protocol: Aggregation kinetics of peptide samples at 2.0 mM were followed by using a FLUOstar Omega (BMG LABTECH) microplate reader. Aliquots of 100 μL of each sample were placed in wells of a 96-well plate and covered with an aluminum foil to avoid evaporation of the solvent. Experimental settings were: λex = 355 nm, gain 1000, bottom optic, orbital shake 200 rpm between readings. Emission intensity at 460 nm was recorded over 300 h and subtracted for the blank. Experiments were conducted in triplicate.
# The aggregation kinetics of the four multi-LARK sequences were monitored using fluorescence experiments, by exploiting the photoemissive behavior of the peptides in the blue field. As the fluorescence emission of these sequences require the aggregation state, as shown by the analyses conducted in solution, it represents a convenient probe of the self-assembly process. Upon excitation at 355 nm of 2.0 mM peptide solutions, the emission at 460 nm was recorded across a 300 h period (Figure S9). By reporting the fluorescence intensity as a function of time, we observed consistent trends across the four multi-LARKS samples, characterized by three different kinetic phases. […] This lag-phase was followed by a linear increase of the fluorescence signal at 460 nm in a relatively short period for all the samples (between 5 and 30 h) except in the case of L1-L2, where this second phase was longer (∼80 h). […]
# [6] = dissolved in water, overnight incubation at 4 °C; ref Eisenberg and co-workers; cited from earlier work
Substance,"Concentration at which self-supporting hydrogel is obtained ([1]; 10 mM PBS, overnight at 4 °C) [wt %]",G′ (storage modulus) upon cooling back to 4 °C [2] [Pa],G′ (storage modulus) upon heating to 80 °C [2] [Pa],"G′ (storage modulus), initial value at 4 °C [2] [Pa]",Hydrogel stability to acidic (pH 5) and basic (pH 10) solutions [3],Critical aggregation concentration (CAC) [4] [µM],Lag-phase duration (constant fluorescence intensity) of aggregation kinetics [5] [h],other results
Ac-STGGYGGDTSYSSYGQSNGPSTGGYG-NH2 [L3-L2-L3],,,,,,,,Hydrogel formation ([1]; concentrations ranging from 2 to 5 wt %): unable to form hydrogels
Ac-STGGYSGDTSYSSYGQS-NH2 [L1**-L2],3,,,,,,,"Temperature at which hydrogel undergoes breakdown (unable to reform upon cooling) ([2]; 3 wt % hydrogel in PBS, heating 4 to 80 °C): 55 °C"
Ac-SYGGYSGDTSYSSYGQS-NH2 [L1*-L2],2,154332,497,818,,,,
Ac-SYSGYSGDTSYSSYGQS-NH2 [L1-L2],,,,,No significant variations,,,Emission maximum of aggregation-induced fluorescence: 400 nm
Ac-SYSGYSGDTSYSSYGQSNGPSTGGYG-NH2 [L1-L2-L3],≥ 2,75762,4708,1967,No significant variations,128,~50,Concentration at which hydrogel forms in water [6]: 5 wt %
Ac-SYSGYSNGPSTGGYG-NH2 [L1-L3],,,,,,153,~50,"Hydrogel formation ([1]; 10 mM PBS, overnight at 4 °C): no gel formation"
